Results as given in US12509429B2, “Hydroxybenzamide derivatives and methods of use in treating diabetes” (THE BOARD OF REGENTS OF THE UNIVERSITY OF OKLAHOMA, priority 2022, dated 2025).
pEC50: −log10 of the molar value. Like-named read-outs stand apart in the source and are kept apart here.

Columns and labels:
[1] = tested on: INS-1 cells; test: Cell viability assay: protection of INS-1 cells from tunicamycin (Tm)-induced loss of viability (CellTiter-Glo, intracellular ATP); format: cell-based, rat; details: for Emax / pEC50: Rattus norvegicus; for Emax: % rescue from Tm (0.15 μg/mL)-induced reduction of INS-1 cell viability (intracellular ATP), Tm alone 0%, DMSO without Tm 100%, 72 h, read-out: Maximum % of Protection; for pEC50: INS-1 cell viability, Tm 0.15 μg/mL, ten 2-fold serial titration points, GraphPad Prism
Method: INS-1 cells were resuspended in RPMI 1640 medium containing 10% FBS and seeded at 5×10^3 cells/well in a 384-well plate. After overnight 24 h incubation, compounds were added to the wells at the indicated concentration using a pin-transfer robot (PerkinElmer). Tm in RPMI 1640 medium containing 10% FBS was then added at a final concentration of 0.15 μg/mL. After 72 h, the medium was removed and 20 μL of CellTiter-Glo reagent (Promega) was added. Luminescence was measured 10 min later using a Synergy Neo2 plate reader (Biotek).
Hydroxy benzamide (HBA) derivatives were synthesized based on various scaffolds and evaluated for their viability of rat INS-1 β cells in the presence of tunicamycin (Tm), a potent ER stress inducer that inhibits N-linked glycosylation of proteins. The maximum activities and the concentrations that reach half-maximal activity (EC50) of the compounds were evaluated by the degree of increase in viability of INS-1 cells co-treated with the compounds in the presence of Tm compared with Tm treatment alone.

[2] = tested on: INS-1 cells; details: earlier work; protection of β-cell survival against ER stress; cited from earlier work

SMILES	Emax ([1]; INS1) [%]	pEC50 ([1]; INS1)	further results
COc1cc(CNC(=O)c2cccc(O)c2)ccc1O [Compound 3s, 3-Hydroxy-N-(4-hydroxy-3-methoxybenzyl)benzamide]	57	4.54	
CC(C)c1ccc(CNC(=O)c2cccc(O)c2)cc1 [Compound 3o, 3-Hydroxy-N-(4-isopropylbenzyl)benzamide]	82	5.77	
O=C(NCc1ccc(C(F)(F)F)cc1)c1cccc(OCC2CCNCC2)c1 [Compound 3l, 3-(Piperidin-4-ylmethoxy)-N-(4-(trifluoromethyl)benzyl)benzamide]	81	5.68	
O=C(NCc1ccc(C(F)(F)F)cc1)Nc1cccc(O)c1 [Compound 5a, 1-(3-Hydroxyphenyl)-3-(4-(trifluoromethyl)benzyl)urea]	65	5.59	
COc1ccc(CNC(=O)c2cccc(O)c2)cc1 [Compound 3r, 3-Hydroxy-N-(4-methoxybenzyl)benzamide]	65	4.67	
O=C(NCc1ccc(C(F)(F)F)cc1)c1cccc(O)c1O [Compound 3g, 2,3-Dihydroxy-N-(4-(trifluoromethyl)benzyl)benzamide]	100	5.51	
CCc1ccc(C(=O)NCc2cccc(C(F)(F)F)c2)cc1 [Compound 3b, 4-Ethyl-N-(3-(trifluoromethyl)benzyl)benzamide]	43	5.36	β-cell protective activity (in words) ([1]; INS-1 cells with Tm): poorer β-cell protective activity
O=C(NCc1ccc(C(F)(F)F)cc1)c1cccc(OCC2CCCCC2)c1 [Compound 3k, 3-(Cyclohexylmethoxy)-N-(4-(trifluoromethyl)benzyl)benzamide]	100	6.14	
COc1cccc(COc2cccc(C(=O)NCc3ccc(C(F)(F)F)cc3)c2)c1 [Compound 3m, 3-((3-Methoxybenzyl)oxy)-N-(4-(trifluoromethyl)benzyl)benzamide]	81	5.39	
O=C(NCc1ccc(C(F)(F)F)cc1)c1ccc(O)cc1 [Compound 3h, 4-Hydroxy-N-(4-(trifluoromethyl)benzyl)benzamide]	100	6.57	
O=C(NCc1cccc(C(F)(F)F)c1)c1cccc(O)c1 [Compound 3c, 3-Hydroxy-N-(3-(trifluoromethyl)benzyl)benzamide]	37	5.00	
O=C(NCc1cccc(O)c1)c1cccc(O)c1 [Compound 3q, 3-Hydroxy-N-(3-hydroxybenzyl)benzamide]	22	4.74	
CN(C)c1ccc(CNC(=O)c2cccc(O)c2)cc1 [Compound 3p, N-(4-(Dimethylamino)benzyl)-3-hydroxybenzamide]	43	5.15	
Cc1c(Cl)cccc1C(=O)NCc1cccc(C(F)(F)F)c1 [Compound 3a, 3-Chloro-2-methyl-N-(3-(trifluoromethyl)benzyl)benzamide]	83	5.00	
COc1cccc(C(=O)NCc2ccc(C(F)(F)F)cc2)c1 [Compound 3j, 3-Methoxy-N-(4-(trifluoromethyl)benzyl)benzamide]	71	4.60	
Cc1ccc(C)c(NC(=O)c2nnn(-c3cccc(Cl)c3C)c2C)c1 [Compound 1, 1-(3-chloro-2-methylphenyl)-N-(2,5-dimethylphenyl)-5-methyl-1H-1,2,3-triazole-4-carboxamide, reference compound]	87	5.55	maximal activity [2]: 87%
COc1cccc(NC(=O)NCc2ccc(C(F)(F)F)cc2)c1 [Compound 5b, 1-(3-Methoxyphenyl)-3-(4-(trifluoromethyl)benzyl)urea]	94	5.80	
COc1ccc(-c2ncc(-c3ccc(C(F)(F)F)cc3)[nH]2)cc1 [Compound 1c, 2-(4-Methoxyphenyl)-5-(4-(trifluoromethyl)phenyl)-1H-imidazole]	17	6.68	β-cell protective activity (in words) ([1]; INS-1 cells with Tm): no improvement
COc1ccc(CNc2ncc(-c3ccc(C(F)(F)F)cc3)[nH]2)cc1 [Compound 2a, N-(4-methoxybenzyl)-5-(4-(trifluoromethyl)phenyl)-1H-imidazol-2-amine]	18	7.30	
COc1cc(C(=O)NCc2cccc(C(F)(F)F)c2)ccc1O [Compound 3e, 4-Hydroxy-3-methoxy-N-(3-(trifluoromethyl)benzyl)benzamide]	100	5.51	
COc1ccc(CNc2ncc(-c3ccccc3OC)[nH]2)cc1 [Compound 2b, N-(4-methoxybenzyl)-5-(2-methoxyphenyl)-1H-imidazol-2-amine]	9	7.68	β-cell protective activity (in words) ([1]; INS-1 cells with Tm): reduced the protecting activity
O=C(NCc1ccc(C(F)(F)F)cc1)c1cccc(OCc2cccc(C(F)(F)F)c2)c1 [Compound 3n, N-(4-(Trifluoromethyl)benzyl)-3-((3-(trifluoromethyl)benzyl)oxy)benzamide]	58	5.20	β-cell protective activity (in words) ([1]; INS-1 cells with Tm): markedly diminished activity
COc1cc(-c2ncc(-c3ccc(C(F)(F)F)cc3)[nH]2)ccc1O [Compound 1b, 2-Methoxy-4-(5-(4-(trifluoromethyl)phenyl)-1H-imidazol-2-yl)phenol]	7	6.59	β-cell protective activity (in words) ([1]; INS-1 cells with Tm): no improvement
O=C(Cc1cccc(O)c1)NCc1ccc(C(F)(F)F)cc1 [Compound 4a, 2-(3-Hydroxyphenyl)-N-(4-(trifluoromethyl)benzyl)acetamide]		5.46	Emax ([1]; INS1, 72 h): 32%
O=C(NCc1ccc(C(F)(F)F)cc1)c1ccc(O)c(O)c1 [Compound 3f, 3,4-Dihydroxy-N-(4-(trifluoromethyl)benzyl)benzamide]	100	5.66	Concentration at which maximal protection is reached ([1]; text of b115, unit printed as PM, unit of the source corrected): 10 µM
Oc1cccc(-c2ncc(-c3ccc(C(F)(F)F)cc3)[nH]2)c1O [Compound 1a, 3-(5-(4-(Trifluoromethyl)phenyl)-1H-imidazol-2-yl)benzene-1,2-diol]	14	6.59	Toxicity at rising compound concentration (in words) ([1]; INS-1 cells with Tm): became toxic when the compound concentration arose; β-cell protective activity (in words) ([1]; INS-1 cells with Tm): some β-cell protective activity at sub-micro molar concentrations
COc1cc(CNC(=O)c2ccc(O)c(OC)c2)ccc1O [Compound 3t, 4-Hydroxy-N-(4-hydroxy-3-methoxybenzyl)-3-methoxybenzamide]	55	4.54	β-cell protective activity (in words) ([1]; INS-1 cells with Tm): equally poor β-cell protective activity
O=C(NCc1cccc(C(F)(F)F)c1)c1ccc(O)c(O)c1 [Compound 3d, 3,4-Dihydroxy-N-(3-(trifluoromethyl)benzyl)benzamide]	51	4.69	
